# According to patent publication US11826357B2, “Bacterial efflux pump inhibitors” (RUTGERS, THE STATE UNIVERSITY OF NEW JERSEY, priority 2017, dated 2023):
# Where a name gives a salt, the structure may show the parent alone.
# Columns and labels:
# P. aeruginosa ATCC 27853 = assay: Intrinsic MIC assay (CLSI broth microdilution); type: cell-based; settings: Pseudomonas aeruginosa, ATCC27853, compound alone
# Protocol: (§1) MIC assays were conducted in accordance with Clinical and Laboratory Standards Institute (CLSI) guidelines for broth microdilution. A 96-well plate containing cation-adjusted Mueller-Hinton (CAMH broth with 2-fold serial dilution of compounds was inoculated with log-phase bacterial at 5×10^5 CFU/mL. The final volume in each well was 100 μL. Each compound was tested in duplicate. The microtiter plates were incubated in an aerobic environment for 18 hours at 37° C. Then the bacterial growth was tested by reading the plate with a VersaMax plate reader (Molecular Devices, Inc.) at 600 nm. The MIC was defined as the lowest compound concentration that inhibited 90% of bacteria growth.
# The intrinsic MIC of the experimental EPIs was tested with the method described. The 2-fold serial dilution begins with 100 μg/mL of tested compound in the first column of the 96-well plates. The following Gram-negative bacterial strains were included in these assays: […]
# [1] = tested on: Pseudomonas aeruginosa ATCC 27853; assay: Standard bacterial EPI assay: MIC of levofloxacin in the absence and presence of the EPI; type: cell-based; settings: P. aeruginosa ATCC 27853
# Protocol: as §1
# The EPI assay for the purposes of these studies represents a MIC assay in which the MIC of the antibiotic against the bacteria is tested in the presence of an experimental efflux pump inhibitor (EPI). […] Using serial dilutions of the EPI, its enhancement of antibiotic activity was then evaluated. […]
# The impact of Example 2 on the MIC values of two test antibiotics (levofloxacin and cefepime) against P. aeruginosa ATCC 27853 were evaluated using our standard EPI assay. […]
# In our standard EPI assay, the MIC of the test antibiotic is determined in the absence and presence of sub-inhibitory concentrations of the EPI. […]
structure (smiles),measurement,setting,value
"NCCC[C@H](N)CNC(=O)c1[nH]c2cc(-c3ccc(F)cc3)ccc2c1C1CC1 [Example 2, (S)-3-cyclopropyl-N-(2,5-diaminopentyl)-6-(4-fluorophenyl)-1H-indole-2-carboxamide dihydrochloride]",MIC,P. aeruginosa ATCC 27853,12.5 µg/mL
same,MIC of levofloxacin in the presence of the EPI,[1]; 6.25 μg/mL (½×MIC) of the EPI,0.032 µg/mL
same,fold reduction of the MIC of levofloxacin relative to the absence of EPI,[1]; 6.25 μg/mL of the EPI,32 fold
